Measurements: patent US20150044296A1, “COMBINATION THERAPY TO IMPROVE JOINT, TENDON, AND LIGAMENT HEALING” (priority 2012, published 2015)

Test system: trephine defect (bony healing)
Assay: Bony healing of trephine defect after systemic treatment
Format: in vivo, mice
Conditions: systemic administration

| SMILES | bony ingrowth / bony regeneration |
| --- | --- |
| c1cc(CN2CCCNCCNCCCNCC2)ccc1CN1CCCNCCNCCCNCC1 [AMD3100] | 59.7% |
| CC[C@H](C)[C@H](NC(=O)[C@H](CCC(=O)O)NC(=O)[C@H](CO)NC(=O)[C@@H](NC(=O)[C@@H](N)CO)C(C)C)C(=O)N[C@@H](CCC(N)=O)C(=O)N[C@@H](CC(C)C)C(=O)N[C@@H](CCSC)C(=O)N[C@@H](Cc1cnc[nH]1)C(=O)N[C@@H](CC(N)=O)C(=O)N[C@@H](CC(C)C)C(=O)NCC(=O)N[C@@H](CCCCN)C(=O)N[C@@H](Cc1cnc[nH]1)C(=O)N[C@@H](CC(C)C)C(=O)N[C@@H](CC(N)=O)C(=O)N[C@@H](CO)C(=O)N[C@@H](CCSC)C(=O)N[C@@H](CCC(=O)O)C(=O)N[C@@H](CCCN=C(N)N)C(=O)N[C@H](C(=O)N[C@@H](CCC(=O)O)C(=O)N[C@@H](Cc1c[nH]c2ccccc12)C(=O)N[C@@H](CC(C)C)C(=O)N[C@@H](CCCN=C(N)N)C(=O)N[C@@H](CCCCN)C(=O)N[C@@H](CCCCN)C(=O)N[C@@H](CC(C)C)C(=O)N[C@@H](CCC(N)=O)C(=O)N[C@@H](CC(=O)O)C(=O)N[C@H](C(=O)N[C@@H](Cc1cnc[nH]1)C(=O)N[C@@H](CC(N)=O)C(=O)N[C@@H](Cc1ccccc1)C(=O)O)C(C)C)C(C)C [PTH] | 56% |
